# Measured values as given in US20060235076A1, “Medicinal composition for treating infection with drug-resistant staphylococcus aureus” (priority 2003, published 2006).
# Read-outs that look alike come from different tables or passages of the source.
# Assays:
# [1] = system: MRSA and MSSA; assay: Antibacterial activity of gallic acid, various gallates and multivalent phenol derivatives alone (agar plate dilution method, MIC); assay type: cell-based, Staphylococcus aureus; details: Staphylococcus aureus
# Description: According to the agar plate dilution method defined by Japan Society of Chemotherapy, MIC (Minimum inhibitory concentration) was determined. CAMHA was prepared by adding 50 mg/l of Ca-ion, 25 mg/l of Mg-ion, and 2% of NaCl to Mueller-Hinton II Agar (MHA), and it was used as a medium for use in the measurement of sensitivity. The bacterial liquid was incubated at 37° C. overnight and diluted to 10^6 CFU/ml with saline.
# MIC for gallic acid, various gallates and multivalent phenol derivatives alone with MRSA and MSSA were determined as described in experiment 2.
# [2] = system: MRSA COL and MRSA Strain No. 5; assay: Potentiating effect of various gallates for antibacterial activity of oxacillin (MIC by broth microdilution method and FIC); assay type: cell-based, Staphylococcus aureus; details: for FIC value: combination with oxacillin
# Description: According to the broth microdilution method defined by Japan Society of Chemotherapy, MIC was determined. CAMHA was prepared by adding 50 mg/l of Ca-ion, 25 mg/l of Mg-ion, and 2% of NaCl to MHB (Mueller-Hinton Broth), and it was used as a medium for use in the measurement of sensitivity. In 96-well microplates 100 μl of the medium for use in the measurement of sensitivity containing drugs was dispensed. The bacterial liquid was incubated at 37° C. overnight, diluted with saline and added to the plate so that the final concentration of the bacteria was 5×10^5 CFU/well. […] FIC (fractional inhibitory concentration) was calculated from the result and the potency of the effect of the combination use was evaluated.
# [3] = ATCC 6538 / MRSA / MSSA, read-out: MIC alone
# [4] = MSSA #1003, read-out: MIC alone
# [5] = MSSA #1010, read-out: MIC alone
# [6] = MSSA #1020, read-out: MIC alone
# [7] = MSSA #1023, read-out: MIC alone
# [8] = MSSA #1029, read-out: MIC alone
# [9] = MSSA #1032, read-out: MIC alone
# [10] = ATCC 6538 / MRSA / MSSA, ATCC6538, read-out: MIC alone
# [11] = compound alone, over all strains of Table 3-1, read-out: MIC50
smiles,measurement,setting,value
"CCCCCCCOC(=O)c1cc(O)c(O)c(O)c1 [Heptyl gallate, n-heptyl gallate]",MIC50,[1],31.3 µg/mL
same,MIC,[1]; [3],31.3 µg/mL
same,MIC,"[1]; COL, read-out: MIC alone",31.3 µg/mL
same,MIC,"[1]; MRSA #1, read-out: MIC alone",31.3 µg/mL
same,MIC,"[1]; MRSA #2, read-out: MIC alone",31.3 µg/mL
same,MIC,"[1]; MRSA #3, read-out: MIC alone",31.3 µg/mL
same,MIC,"[1]; MRSA #4, read-out: MIC alone",31.3 µg/mL
same,MIC,"[1]; MRSA #5, read-out: MIC alone",31.3 µg/mL
same,MIC,"[1]; MRSA #6, read-out: MIC alone",31.3 µg/mL
same,MIC,"[1]; MRSA #7, read-out: MIC alone",31.3 µg/mL
same,MIC,"[1]; MRSA #8, read-out: MIC alone",31.3 µg/mL
same,MIC,"[1]; MRSA #9, read-out: MIC alone",31.3 µg/mL
same,MIC,"[1]; MRSA #10, read-out: MIC alone",31.3 µg/mL
same,MIC,"[1]; MRSA #12, read-out: MIC alone",31.3 µg/mL
same,MIC,"[1]; MRSA #16, read-out: MIC alone",31.3 µg/mL
same,MIC,"[1]; MRSA #17, read-out: MIC alone",31.3 µg/mL
same,MIC,"[1]; MRSA #18, read-out: MIC alone",31.3 µg/mL
same,MIC,"[1]; MRSA #20, read-out: MIC alone",31.3 µg/mL
same,MIC,"[1]; MRSA #21, read-out: MIC alone",31.3 µg/mL
same,MIC,"[1]; MRSA #22, read-out: MIC alone",31.3 µg/mL
same,MIC,"[1]; MRSA #24, read-out: MIC alone",31.3 µg/mL
same,MIC,[1]; [4],31.3 µg/mL
same,MIC,[1]; [5],31.3 µg/mL
same,MIC,[1]; [6],31.3 µg/mL
same,MIC,[1]; [7],31.3 µg/mL
same,MIC,[1]; [8],31.3 µg/mL
same,MIC,[1]; [9],31.3 µg/mL
same,FIC value,[2]; MRSA COL,0.563
same,FIC value,[2]; MRSA Strain No. 5,0.75
"CCCCOC(=O)c1cc(O)c(O)c(O)c1 [Butyl gallate, n-butyl gallate]",MIC,[1]; [10],125 µg/mL
same,MIC,"[1]; COL, read-out: MIC alone",125 µg/mL
same,MIC,"[1]; MRSA #1, read-out: MIC alone",125 µg/mL
same,MIC,"[1]; MRSA #2, read-out: MIC alone",125 µg/mL
same,MIC,"[1]; MRSA #3, read-out: MIC alone",125 µg/mL
same,MIC,"[1]; MRSA #4, read-out: MIC alone",125 µg/mL
same,MIC,"[1]; MRSA #5, read-out: MIC alone",125 µg/mL
same,MIC,"[1]; MRSA #6, read-out: MIC alone",62.5 µg/mL
same,MIC,"[1]; MRSA #7, read-out: MIC alone",125 µg/mL
same,MIC,"[1]; MRSA #8, read-out: MIC alone",125 µg/mL
same,MIC,"[1]; MRSA #9, read-out: MIC alone",62.5 µg/mL
same,MIC,"[1]; MRSA #10, read-out: MIC alone",62.5 µg/mL
same,MIC,"[1]; MRSA #12, read-out: MIC alone",125 µg/mL
same,MIC,"[1]; MRSA #16, read-out: MIC alone",125 µg/mL
same,MIC,"[1]; MRSA #17, read-out: MIC alone",125 µg/mL
same,MIC,"[1]; MRSA #18, read-out: MIC alone",125 µg/mL
same,MIC,"[1]; MRSA #20, read-out: MIC alone",125 µg/mL
same,MIC,"[1]; MRSA #21, read-out: MIC alone",125 µg/mL
same,MIC,"[1]; MRSA #22, read-out: MIC alone",125 µg/mL
same,MIC,"[1]; MRSA #24, read-out: MIC alone",125 µg/mL
same,MIC,[1]; [4],125 µg/mL
same,MIC,[1]; [5],125 µg/mL
same,MIC,[1]; [6],125 µg/mL
same,MIC,[1]; [7],125 µg/mL
same,MIC,[1]; [8],62.5 µg/mL
same,MIC,[1]; [9],125 µg/mL
same,MIC50,[1]; [11],125 µg/mL
same,effect of the combination use with oxacillin by FIC values,[2]; COL Strain and Strain No. 5,most potent effect of the combination use
same,FIC value,[2]; MRSA COL,0.129
same,FIC value,[2]; MRSA Strain No. 5,0.254
"CCCCCCCCCCCOC(=O)c1cc(O)c(O)c(O)c1 [Undecyl gallate, n-undecyl gallate]",MIC50,[1],31.3 µg/mL
same,MIC,[1]; ATCC 6538 / MRSA / MSSA,31.3 µg/mL
same,MIC,"[1]; COL, compound alone, read-out: MIC",31.3 µg/mL
same,MIC,"[1]; MRSA #1, compound alone, read-out: MIC",31.3 µg/mL
same,MIC,"[1]; MRSA #2, compound alone, read-out: MIC",31.3 µg/mL
same,MIC,"[1]; MRSA #3, compound alone, read-out: MIC",31.3 µg/mL
same,MIC,"[1]; MRSA #4, compound alone, read-out: MIC",31.3 µg/mL
same,MIC,"[1]; MRSA #5, compound alone, read-out: MIC",31.3 µg/mL
same,MIC,"[1]; MRSA #6, compound alone, read-out: MIC",31.3 µg/mL
same,MIC,"[1]; MRSA #7, compound alone, read-out: MIC",31.3 µg/mL
same,MIC,"[1]; MRSA #8, compound alone, read-out: MIC",31.3 µg/mL
same,MIC,"[1]; MRSA #9, compound alone, read-out: MIC",31.3 µg/mL
same,MIC,"[1]; MRSA #10, compound alone, read-out: MIC",31.3 µg/mL
same,MIC,"[1]; MRSA #12, compound alone, read-out: MIC",31.3 µg/mL
same,MIC,"[1]; MRSA #16, compound alone, read-out: MIC",31.3 µg/mL
same,MIC,"[1]; MRSA #17, compound alone, read-out: MIC",31.3 µg/mL
same,MIC,"[1]; MRSA #18, compound alone, read-out: MIC",31.3 µg/mL
same,MIC,"[1]; MRSA #20, compound alone, read-out: MIC",31.3 µg/mL
same,MIC,"[1]; MRSA #21, compound alone, read-out: MIC",31.3 µg/mL
same,MIC,"[1]; MRSA #22, compound alone, read-out: MIC",31.3 µg/mL
same,MIC,"[1]; MRSA #24, compound alone, read-out: MIC",31.3 µg/mL
same,MIC,"[1]; MSSA #1003, compound alone, read-out: MIC",31.3 µg/mL
same,MIC,"[1]; MSSA #1010, compound alone, read-out: MIC",31.3 µg/mL
same,MIC,"[1]; MSSA #1020, compound alone, read-out: MIC",31.3 µg/mL
same,MIC,"[1]; MSSA #1023, compound alone, read-out: MIC",31.3 µg/mL
same,MIC,"[1]; MSSA #1029, compound alone, read-out: MIC",31.3 µg/mL
same,MIC,"[1]; MSSA #1032, compound alone, read-out: MIC",31.3 µg/mL
same,antibacterial activity when used alone,[2]; COL Strain and Strain No. 5,most potent
same,FIC value,[2]; MRSA COL,0.313
same,FIC value,[2]; MRSA Strain No. 5,0.251
"CCOC(=O)c1cc(O)c(O)c(O)c1 [Ethyl gallate, ethyl gallate]",MIC50,[1],125 µg/mL
same,MIC,[1]; [3],125 µg/mL
same,MIC,"[1]; COL, read-out: MIC alone",125 µg/mL
same,MIC,"[1]; MRSA #1, read-out: MIC alone",125 µg/mL
same,MIC,"[1]; MRSA #2, read-out: MIC alone",62.5 µg/mL
same,MIC,"[1]; MRSA #3, read-out: MIC alone",125 µg/mL
same,MIC,"[1]; MRSA #4, read-out: MIC alone",62.5 µg/mL
same,MIC,"[1]; MRSA #5, read-out: MIC alone",125 µg/mL
same,MIC,"[1]; MRSA #6, read-out: MIC alone",62.5 µg/mL
same,MIC,"[1]; MRSA #7, read-out: MIC alone",125 µg/mL
same,MIC,"[1]; MRSA #8, read-out: MIC alone",125 µg/mL
same,MIC,"[1]; MRSA #9, read-out: MIC alone",62.5 µg/mL
same,MIC,"[1]; MRSA #10, read-out: MIC alone",62.5 µg/mL
same,MIC,"[1]; MRSA #12, read-out: MIC alone",125 µg/mL
same,MIC,"[1]; MRSA #16, read-out: MIC alone",125 µg/mL
same,MIC,"[1]; MRSA #17, read-out: MIC alone",62.5 µg/mL
same,MIC,"[1]; MRSA #18, read-out: MIC alone",62.5 µg/mL
same,MIC,"[1]; MRSA #20, read-out: MIC alone",125 µg/mL
same,MIC,"[1]; MRSA #21, read-out: MIC alone",125 µg/mL
same,MIC,"[1]; MRSA #22, read-out: MIC alone",125 µg/mL
same,MIC,"[1]; MRSA #24, read-out: MIC alone",125 µg/mL
same,MIC,[1]; [4],125 µg/mL
same,MIC,[1]; [5],125 µg/mL
same,MIC,[1]; [6],125 µg/mL
same,MIC,[1]; [7],62.5 µg/mL
same,MIC,[1]; [8],62.5 µg/mL
same,MIC,[1]; [9],125 µg/mL
same,FIC value,[2]; MRSA COL,0.125
same,FIC value,[2]; MRSA Strain No. 5,0.156
"CCCOC(=O)c1cc(O)c(O)c(O)c1 [Propyl gallate, n-propyl gallate]",MIC,[1]; [10],125 µg/mL
same,MIC,"[1]; COL, read-out: MIC alone",125 µg/mL
same,MIC,"[1]; MRSA #1, read-out: MIC alone",125 µg/mL
same,MIC,"[1]; MRSA #2, read-out: MIC alone",62.5 µg/mL
same,MIC,"[1]; MRSA #3, read-out: MIC alone",125 µg/mL
same,MIC,"[1]; MRSA #4, read-out: MIC alone",125 µg/mL
same,MIC,"[1]; MRSA #5, read-out: MIC alone",125 µg/mL
same,MIC,"[1]; MRSA #6, read-out: MIC alone",62.5 µg/mL
same,MIC,"[1]; MRSA #7, read-out: MIC alone",125 µg/mL
same,MIC,"[1]; MRSA #8, read-out: MIC alone",125 µg/mL
same,MIC,"[1]; MRSA #9, read-out: MIC alone",62.5 µg/mL
same,MIC,"[1]; MRSA #10, read-out: MIC alone",62.5 µg/mL
same,MIC,"[1]; MRSA #12, read-out: MIC alone",125 µg/mL
same,MIC,"[1]; MRSA #16, read-out: MIC alone",125 µg/mL
same,MIC,"[1]; MRSA #17, read-out: MIC alone",62.5 µg/mL
same,MIC,"[1]; MRSA #18, read-out: MIC alone",62.5 µg/mL
same,MIC,"[1]; MRSA #20, read-out: MIC alone",125 µg/mL
same,MIC,"[1]; MRSA #21, read-out: MIC alone",125 µg/mL
same,MIC,"[1]; MRSA #22, read-out: MIC alone",125 µg/mL
same,MIC,"[1]; MRSA #24, read-out: MIC alone",125 µg/mL
same,MIC,[1]; [4],125 µg/mL
same,MIC,[1]; [5],125 µg/mL
same,MIC,[1]; [6],125 µg/mL
same,MIC,[1]; [7],62.5 µg/mL
same,MIC,[1]; [8],62.5 µg/mL
same,MIC,[1]; [9],125 µg/mL
same,MIC50,[1]; [11],125 µg/mL
same,FIC value,[2]; MRSA COL,0.258
same,FIC value,[2]; MRSA Strain No. 5,0.258
